Assay results as given in patent US8003649B2 (AstraZeneca AB, priority 2007, dated 2011).

Molecular target: T1, Androgen Receptor (AR) (Homo sapiens, UniProt P10275, T878A)
T1 construct: cell based immuno-fluorescence assay using the LNCaP prostate epithelial cell line; endogenous in cells; host or cells: LNCaP clone FGC (ATCC CRL-1740)
T1 sequence (P10275 1-920 T878A): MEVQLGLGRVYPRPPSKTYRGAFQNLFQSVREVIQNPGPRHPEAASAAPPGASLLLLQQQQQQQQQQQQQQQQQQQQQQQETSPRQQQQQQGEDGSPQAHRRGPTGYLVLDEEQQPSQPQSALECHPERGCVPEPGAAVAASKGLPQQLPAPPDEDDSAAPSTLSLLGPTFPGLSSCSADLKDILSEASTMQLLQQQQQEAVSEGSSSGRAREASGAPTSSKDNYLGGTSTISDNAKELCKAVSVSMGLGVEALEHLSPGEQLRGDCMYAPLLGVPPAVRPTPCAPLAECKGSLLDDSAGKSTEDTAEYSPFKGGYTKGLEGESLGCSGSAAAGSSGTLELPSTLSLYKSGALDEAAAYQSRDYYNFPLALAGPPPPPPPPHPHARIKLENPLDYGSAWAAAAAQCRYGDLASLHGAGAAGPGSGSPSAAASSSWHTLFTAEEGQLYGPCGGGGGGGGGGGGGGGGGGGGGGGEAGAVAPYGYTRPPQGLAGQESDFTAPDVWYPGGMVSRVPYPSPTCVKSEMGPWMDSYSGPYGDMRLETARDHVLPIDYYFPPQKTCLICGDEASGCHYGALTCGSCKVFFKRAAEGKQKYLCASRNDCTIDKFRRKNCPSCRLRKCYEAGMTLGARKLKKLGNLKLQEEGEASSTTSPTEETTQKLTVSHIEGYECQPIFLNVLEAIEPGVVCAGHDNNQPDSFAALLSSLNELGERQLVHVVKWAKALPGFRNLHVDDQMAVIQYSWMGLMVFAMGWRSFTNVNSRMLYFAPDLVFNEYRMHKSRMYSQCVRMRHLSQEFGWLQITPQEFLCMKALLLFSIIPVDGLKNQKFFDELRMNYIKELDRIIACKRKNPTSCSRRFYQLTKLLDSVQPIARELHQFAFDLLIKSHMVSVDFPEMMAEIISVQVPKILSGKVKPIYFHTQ
Assay: LNCaP Androgen Receptor Down-regulation Cell Assay (immunofluorescence end point)
Format: cell-based
Details: LNCaP prostate carcinoma cells, compound incubation 20-22 hours, 50% reduction of the AR signal; read-out: Androgen Receptor Down-regulation Assay (a) IC50/μM
Method in brief: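 AR loss reported as IC50 from curve fits of fluorescence dose-response data, with AR immunostained and read by laser-scanning cytometry. Compound exposure was 20-22 h at 37° C in LNCaP cells grown in 5% charcoal-stripped FBS and plated overnight beforehand.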

SMILES	DC50
O=C(CN1CCOCC1)Nc1ccc(C2CCN(c3ccc4nnc(C(F)(F)F)n4n3)CC2)cc1 [Example 710]	2.1 µM
CN1CCN(CC(=O)Nc2cccc(C3CCN(c4ccc5nnc(C(F)(F)F)n5n4)CC3)c2)CC1 [Example 711]	2.5 µM
O=C(CN1CCCC1)Nc1cccc(C2CCN(c3ccc4nnc(C(F)(F)F)n4n3)CC2)c1 [Example 712]	3 µM
FC(F)(F)c1nnc2ccc(N3CCC(Oc4ncc(Cl)cn4)CC3)nn12 [Example 714]	> 9.9 µM
FC(F)(F)c1nnc2ccc(N3CCC(Oc4cccnc4Br)CC3)nn12 [Example 717]	2.9 µM
FC(F)(F)c1nnc2ccc(N3CCC(Oc4cccnc4)CC3)nn12 [Example 718]	3.6 µM
FC(F)(F)c1ccc(OC2CCN(c3ccc4nnc(C(F)(F)F)n4n3)CC2)nc1 [Example 719]	3.5 µM
FC(F)(F)c1nnc2ccc(N3CCC(Oc4ccc(Cl)nc4)CC3)nn12 [Example 720]	2.7 µM
FC(F)(F)c1nnc2ccc(N3CCC(Oc4ccc(Br)cn4)CC3)nn12 [Example 721]	2.9 µM
FC(F)(F)c1nnc2ccc(N3CCC(Oc4cncc(Br)c4)CC3)nn12 [Example 722]	4.1 µM
FC(F)(F)c1nnc2ccc(N3CCC(c4ccc(OCc5cnco5)cc4)CC3)nn12 [Example 734]	2.5 µM
O=C(c1ccc(C2CCN(c3ccc4nnc(C(F)(F)F)n4n3)CC2)cc1)N1CC[C@@H](O)C1 [Example 738]	3.3 µM
O=C(c1ccc(C2CCN(c3ccc4nnc(C(F)(F)F)n4n3)CC2)cc1)N1CC[C@H](O)C1 [Example 739]	3.2 µM
CN(CCS(C)(=O)=O)C(=O)c1ccc(C2CCN(c3ccc4nnc(C(F)(F)F)n4n3)CC2)cc1 [Example 741]	2.2 µM
CN1CCN(C(=O)c2ccc(N3CCN(c4ccc5nnc(C(F)(F)F)n5n4)CC3)cc2)CC1 [Example 744]	9.6 µM
COCCNC(=O)c1ccc(N2CCN(c3ccc4nnc(C(F)(F)F)n4n3)CC2)cc1 [Example 745]	3.4 µM
CN(C)C(=O)c1ccc(N2CCN(c3ccc4nnc(C(F)(F)F)n4n3)CC2)cc1 [Example 746]	3.3 µM
O=C(c1ccc(N2CCN(c3ccc4nnc(C(F)(F)F)n4n3)CC2)cc1)N1CC[C@@H](O)C1 [Example 747]	23 µM
O=C(c1ccc(N2CCN(c3ccc4nnc(C(F)(F)F)n4n3)CC2)cc1)N1CCCC1 [Example 748]	5.6 µM
O=C(c1ccc(N2CCN(c3ccc4nnc(C(F)(F)F)n4n3)CC2)cc1)N1CCOCC1 [Example 749]	> 22 µM

SMILES	DC50
O=C(NCCN1CCOCC1)c1ccc(N2CCN(c3ccc4nnc(C(F)(F)F)n4n3)CC2)cc1 [Example 750]	2.6 µM
COCCN(C)C(=O)c1ccc(N2CCN(c3ccc4nnc(C(F)(F)F)n4n3)CC2)cc1 [Example 751]	6.3 µM
CN(CCN1CCCC1=O)C(=O)c1ccc(C2CCN(c3ccc4nnc(C(F)(F)F)n4n3)CC2)cc1 [Example 753, N-methyl-N-[2-(2-oxopyrrolidin-1-yl)ethyl]-4-[1-[3-(trifluoromethyl)[1,2,4]triazolo[4,3-b]pyridazin-6-yl]piperidin-4-yl]benzamide]	2.1 µM
CN(CCN1CCOCC1)C(=O)c1ccc(C2CCN(c3ccc4nnc(C(F)(F)F)n4n3)CC2)cc1 [Example 754, N-methyl-N-(2-morpholin-4-ylethyl)-4-[1-[3-(trifluoromethyl)[1,2,4]triazolo[4,3-b]pyridazin-6-yl]piperidin-4-yl]benzamide]	2.5 µM
FC(F)(F)c1nnc2ccc(N3CCN(c4ccc(OCCN5CCCC5)cc4)CC3)nn12 [Example 755]	2.2 µM
FC(F)(F)c1nnc2ccc(N3CCN(c4ccc(OCc5ccon5)cc4)CC3)nn12 [Example 757]	> 12 µM
Fc1cc(Cl)cc(CN2CCN(c3ccc4nnc(C(F)(F)F)n4n3)CC2)c1 [Example 759]	3.9 µM
Fc1cc(CN2CCN(c3ccc4nnc(C(F)(F)F)n4n3)CC2)cc(C(F)(F)F)c1 [Example 760]	> 3.1 µM
Fc1cc(F)c(F)c(CN2CCN(c3ccc4nnc(C(F)(F)F)n4n3)CC2)c1 [Example 763]	> 9.8 µM
Fc1ccc(F)c(CN2CCN(c3ccc4nnc(C(F)(F)F)n4n3)CC2)c1F [Example 764]	2.5 µM
CS(=O)(=O)c1ccc(F)cc1CN1CCN(c2ccc3nnc(C(F)(F)F)n3n2)CC1 [Example 765]	8.8 µM
Fc1ccc(CN2CCN(c3ccc4nnc(C(F)(F)F)n4n3)CC2)c(F)c1F [Example 766]	> 17 µM
Fc1cc(CN2CCN(c3ccc4nnc(C(F)(F)F)n4n3)CC2)cc(F)c1F [Example 767]	> 12 µM
Fc1cccc(CN2CCN(c3ccc4nnc(C(F)(F)F)n4n3)CC2)c1Cl [Example 768]	4.7 µM
FC(F)(F)c1nnc2ccc(N3CCN(Cc4cncc(Cl)c4)CC3)nn12 [Example 770]	6.3 µM
FC(F)(F)c1nnc2ccc(N3CCN(Cc4cncc(Br)c4)CC3)nn12 [Example 774]	8 µM
COc1ncccc1CN1CCN(c2ccc3nnc(C(F)(F)F)n3n2)CC1 [Example 775]	6.8 µM
Cc1ccc(CN2CCN(c3ccc4nnc(C(F)(F)F)n4n3)CC2)cn1 [Example 776]	6.9 µM
FC(F)(F)c1ncccc1CN1CCN(c2ccc3nnc(C(F)(F)F)n3n2)CC1 [Example 777]	4.6 µM
CS(=O)(=O)c1cc(F)cc(CN2CCN(c3ccc4nnc(C(F)(F)F)n4n3)CC2)c1 [Example 778, 6-[4-[3-fluoro-5-(methylsulfonyl)benzyl]piperazin-1-yl]-3-(trifluoromethyl)[1,2,4]triazolo[4,3-b]pyridazine]	2.6 µM

These reach a lower DC50. Values come first.

DC50	SMILES
1.7 µM	O=C(CN1CCCC1)Nc1ccc(C2CCN(c3ccc4nnc(C(F)(F)F)n4n3)CC2)cc1 [Example 709]
0.81 µM	O=C(CN1CCOCC1)Nc1cccc(C2CCN(c3ccc4nnc(C(F)(F)F)n4n3)CC2)c1 [Example 713]
0.81 µM	FC(F)(F)c1nnc2ccc(N3CCC(Oc4cccc(Cl)n4)CC3)nn12 [Example 716]
0.9 µM	FC(F)(F)c1nnc2ccc(N3CCC(Oc4ncccc4Br)CC3)nn12 [Example 723]
0.69 µM	FC(F)(F)c1nnc2ccc(N3CCC(Oc4ccc(Cl)cc4)CC3)nn12 [Example 724]
1.4 µM	CN(C)CCCOc1ccc(C2CCN(c3ccc4nnc(C(F)(F)F)n4n3)CC2)cc1 [Example 726]
1.5 µM	FC(F)(F)c1nnc2ccc(N3CCC(c4ccc(OCCCN5CCNCC5)cc4)CC3)nn12 [Example 728, 6-[4-[4-(3-piperazin-1-ylpropoxy)phenyl]piperidin-1-yl]-3-(trifluoromethyl)[1,2,4]triazolo[4,3-b]pyridazine]
0.92 µM	Cc1cc(COc2ccc(C3CCN(c4ccc5nnc(C(F)(F)F)n5n4)CC3)cc2)no1 [Example 729]
0.72 µM	CN(C)CCOc1ccc(C2CCN(c3ccc4nnc(C(F)(F)F)n4n3)CC2)cc1 [Example 730]
1.1 µM	FC(F)(F)c1nnc2ccc(N3CCC(c4ccc(OCCN5CCOCC5)cc4)CC3)nn12 [Example 731]
1.1 µM	CN1CCN(CCCOc2ccc(C3CCN(c4ccc5nnc(C(F)(F)F)n5n4)CC3)cc2)CC1 [Example 732]
0.6 µM	FC(F)(F)c1nnc2ccc(N3CCC(c4ccc(OCc5ccon5)cc4)CC3)nn12 [Example 733]
1.9 µM	CN1CCN(CCOc2ccc(C3CCN(c4ccc5nnc(C(F)(F)F)n5n4)CC3)cc2)CC1 [Example 735]
0.4 µM	Cn1nccc1COc1ccc(C2CCN(c3ccc4nnc(C(F)(F)F)n4n3)CC2)cc1 [Example 736]
0.74 µM	OCCOc1cccc(C2CCN(c3ccc4nnc(C(F)(F)F)n4n3)CC2)c1 [Example 737, 2-[3-[1-[3-(trifluoromethyl)[1,2,4]triazolo[4,3-b]pyridazin-6-yl]piperidin-4-yl]phenoxy]ethanol]
2 µM	O=C(c1ccc(C2CCN(c3ccc4nnc(C(F)(F)F)n4n3)CC2)cc1)N1CCC(O)CC1 [Example 740]
1.5 µM	Fc1cccc(CN2CCN(c3ccc4nnc(C(F)(F)F)n4n3)CC2)c1C(F)(F)F [Example 761]
0.54 µM	Fc1ccc(C(F)F)c(CN2CCN(c3ccc4nnc(C(F)(F)F)n4n3)CC2)c1 [Example 779, 6-[4-[2-(difluoromethyl)-5-fluorobenzyl]piperazin-1-yl]-3-(trifluoromethyl)[1,2,4]triazolo[4,3-b]pyridazine]
